From patent publication US20240310388A1, “DIAGNOSTIC METHODS FOR HIDRADENITIS SUPPURATIVA” (AMGEN INC., priority 2023, published 2024)

What was measured:
HS patients = test: Phase 2 clinical study (NCT03852472): safety and tolerability; format: in vivo, human
Description: The study was a randomized, double-blind, placebo-controlled, three group Phase 2 trial in 435 subjects with moderate to severe hidradenitis suppurativa (Hurley stage II or III). Subjects were randomized 1:1:1 to a treatment of 10 mg avacopan twice daily, 30 mg avacopan twice daily or a placebo twice daily for 12 weeks. Following the 12 weeks double-blind treatment period, subjects on placebo were re-randomized 1:1 to receive 10 mg or 30 mg avacopan twice daily for additional 24 weeks. Subjects treated with avacopan continued to receive the same dose (either 10 mg or 30 mg twice daily) for additional 24 weeks.
Subjects were on study treatment for 36 weeks and were followed for 8 weeks for assessment of safety and efficacy. The primary efficacy analysis was at 12 weeks.

[1] = test system: subjects with moderate to severe hidradenitis suppurativa (Hurley stage II or III); test: Phase 2 clinical study (NCT03852472, AURORA): HiSCR, AN count, DF count and IHS4 at Week 12; format: in vivo, human; conditions: for HiSCR response rate % (n/N): biomarker sample subset of AURORA (n = 68 HS patients), placebo 25
Description: The study was a randomized, double-blind, placebo-controlled, three group Phase 2 trial in 435 subjects with moderate to severe hidradenitis suppurativa (Hurley stage II or III). Subjects were randomized 1:1:1 to a treatment of 10 mg avacopan twice daily, 30 mg avacopan twice daily or a placebo twice daily for 12 weeks. Following the 12 weeks double-blind treatment period, subjects on placebo were re-randomized 1:1 to receive 10 mg or 30 mg avacopan twice daily for additional 24 weeks. Subjects treated with avacopan continued to receive the same dose (either 10 mg or 30 mg twice daily) for additional 24 weeks. Subjects were on study treatment for 36 weeks and were followed for 8 weeks for assessment of safety and efficacy. The primary efficacy analysis was at 12 weeks. The primary efficacy endpoint assessed by the proportion of subjects achieving Hidradenitis Suppurativa Clinical Response (HiSCR) at Week 12. • At least 18 years of age • Clinical diagnosis of HS (Hurley Stage II or III), confirmed by a dermatologist, for at least 6 months prior to Screening • HS lesions are present in at least 2 distinct anatomic areas • Inadequate or loss of response to a systemic course of antibiotics typically of at least 90 days • Must have at least 5 inflammatory nodules or abscesses at screening • Use adequate birth control for subject and partners of child bearing potential • Willing and able to give written Informed Consent • Pregnant or breast-feeding • Any other skin disease that may interfere with the assessment of HS • Rapidly progressive, expanding HS within 30 days prior to screening • More than 20 draining fistulae at screening • Any anti-TNF-α treatment for HS or for other conditions prior to Day 1 visit will be prohibited. Exception: Subjects who were previously treated with an anti-TNF-α drug and discontinued treatment >12 weeks prior to Day 1 visit are allowed for enrollment • Systemic antibiotics are generally excluded • Topical antibiotics use within 14 days prior to Day 1 is excluded • Have started a topical prescription medicine for HS within 14 days prior to screening • A systemic medicine for HS, including biologics and other systemic therapies • Have received within 14 days prior to Day 1 visit or is expected to require oral or transdermal opioid analgesics (except for tramadol) for any reason The proportion of subjects achieving HiSCR at Week 12 is calculated as those subjects having at least a 50% reduction from baseline in abscess and inflammatory nodule (AN) count, with no increase in abscess count and no increase in draining fistula count number at Week 12 divided by the total number of subjects with non-missing value in each treatment group. p-values are obtained from a Cochran-Mantel-Haenszel (CMH) test stratified by stratification factors Hurley Stage (Stage II vs. III), and anti-TNF drug use (Treatment naïve vs. Previous treatment). Plasma samples were collected at baseline prior to the start of treatment from 68 enrolled HS patients in phase II AURORA study (NCT03852472) and from 20 independent age and gender matched healthy controls.

Cc1ccc(NC(=O)[C@H]2CCCN(C(=O)c3c(C)cccc3F)[C@H]2c2ccc(NC3CCCC3)cc2)cc1C(F)(F)F [avacopan]
safety and tolerability (HS patients): safe and well tolerated
% Difference (avacopan − placebo) in HiSCR ([1]; Hurley Stage II, Week 12, avacopan 10 mg BID): −13.9%
% Adjusted difference (avacopan − placebo) in HiSCR ([1]; Hurley Stage II, Week 12, avacopan 10 mg BID, 95% CI (−26.8, −0.2)): −13.8%
HiSCR Responder Rate, n/N ([1]; Hurley Stage II, Week 12, avacopan 10 mg BID, placebo 35.3, p=0.0473): 21.4%
HiSCR Responder Rate, n/N ([1]; Hurley Stage II, Week 12, avacopan 10 mg BID, placebo 35.3, p=0.0473, listed as Avacopan): 18/84 (21.4) %
% Difference (avacopan − placebo) in HiSCR ([1]; Hurley Stage II, Week 12, avacopan 30 mg BID): −4.3%
% Adjusted difference (avacopan − placebo) in HiSCR ([1]; Hurley Stage II, Week 12, avacopan 30 mg BID, 95% CI (−18.1, 9.6)): −4.3%
HiSCR Responder Rate, n/N ([1]; Hurley Stage II, Week 12, avacopan 30 mg BID, placebo 35.3, p=0.5469): 27/87 (31.0) %
HiSCR Responder Rate, n/N ([1]; Hurley Stage III (ITT1), Week 12, avacopan 10 mg BID, placebo 22.2): 24.0%
HiSCR Responder Rate, n/N ([1]; Hurley Stage III (ITT1), Week 12, avacopan 10 mg BID, placebo 22.2, listed as Avacopan): 12/50 (24) %
HiSCR Responder Rate, n/N ([1]; Hurley Stage III (ITT1), Week 12, avacopan 30 mg BID, placebo 22.2, p=0.0349 (text)): 42.6%
HiSCR Responder Rate, n/N ([1]; Hurley Stage III (ITT1), Week 12, avacopan 30 mg BID, placebo 22.2, p=0.0349 (text), listed as Avacopan): 20/47 (42.6) %
IHS4, AN, draining fistula and abscess count ([1]; Hurley Stage III patients, week 12): consistent reduction
% Difference (avacopan − placebo) in HiSCR ([1]; Hurley Stage III, Week 12, avacopan 10 mg BID): 1.8%
% Adjusted difference (avacopan − placebo) in HiSCR ([1]; Hurley Stage III, Week 12, avacopan 10 mg BID, 95% CI (−15.3, 18.3)): 1.8%
% Difference (avacopan − placebo) in HiSCR ([1]; Hurley Stage III, Week 12, avacopan 30 mg BID): 20.3%
% Adjusted difference (avacopan − placebo) in HiSCR ([1]; Hurley Stage III, Week 12, avacopan 30 mg BID, 95% CI (1.6, 37.9)): 20.8%
percentage reduction in IHS4 Score ([1]; Hurley Stage III, Week 12, avacopan 30 mg BID, placebo 20.7%): 36.9%
percentage reduction in AN count ([1]; Hurley Stage III, Week 12, avacopan 30 mg BID, placebo 23.7%): 40.8%
percentage reduction in DF count ([1]; Hurley Stage III, Week 12, avacopan 30 mg BID, placebo 24.0%): 45.2%
HiSCR response rate % (n/N) ([1]; avacopan 10 mg): 29.2 (7/24) %
HiSCR response rate % (n/N) ([1]; avacopan 30 mg): 54.2 (13/24) %
improvement in HiSCR vs. placebo ([1]; pre-specified Hurley Stage III (severe HS) patients at 12 weeks): statistically significant dose-dependent improvement
